Laboratory results from US10428083B2, “Heterocyclylmethyl-thienouracile as antagonists of the adenosine-A2B-receptor” (BAYER PHARMA AKTIENGESELLSCHAFT, priority 2015, dated 2019).
pIC50: −log10 of the molar value.

Target: human adenosine A2b receptor (Homo sapiens (Human), UniProt P29275)
Assay: Cellular in vitro reporter gene test for A2b receptor activity (CHO-K1, CRE-luciferase, NECA stimulation)
Type: cell-based
Conditions: recombinant CHO-K1 cell line, CRE-luciferase reporter, antagonism of EC50 concentration of NECA; in some cases means of several determinations, rounded to two significant figures; read-out: A2b receptor IC50
Method in brief: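 CHO-K1 cells with CRE-driven luciferase; antagonists co-incubated with NECA at its EC50, determined in a pre-experiment on each test day. Luciferase read by luminescence 3 h after NECA addition.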

human adenosine A2b receptor, sequence (P29275 whole entry): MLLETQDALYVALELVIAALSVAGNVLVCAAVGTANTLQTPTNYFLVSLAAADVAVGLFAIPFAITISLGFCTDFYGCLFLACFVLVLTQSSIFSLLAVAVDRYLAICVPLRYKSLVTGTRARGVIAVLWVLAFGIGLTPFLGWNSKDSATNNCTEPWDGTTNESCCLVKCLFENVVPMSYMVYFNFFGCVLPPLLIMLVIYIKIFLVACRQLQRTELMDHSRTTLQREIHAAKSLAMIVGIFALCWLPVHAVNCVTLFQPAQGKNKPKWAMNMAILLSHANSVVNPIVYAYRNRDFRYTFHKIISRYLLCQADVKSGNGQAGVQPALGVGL

Compound | pIC50
COC(C)Cn1c(=O)c2c(C)c(CN3CCNC3=NC#N)sc2n(CCC(F)(F)F)c1=O (single isomer, unassigned) [Example 455, [1-{[3-(2-Methoxypropyl)-5-methyl-2,4-dioxo-1-(3,3,3-trifluoropropyl)-1,2,3,4-tetrahydrothieno[2,3-d]pyrimidin-6-yl]methyl}imidazolidin-2-ylidene]cyanamide] | 8.44
Cc1c(CN2CCNC2=O)sc2c1c(=O)n(CC(F)(F)F)c(=O)n2CCCF [Example 93, 1-(3-Fluoropropyl)-5-methyl-6-[(2-oxoimidazolidin-1-yl)methyl]-3-(2,2,2-trifluoroethyl)thieno[2,3-d]pyrimidine-2,4(1H,3H)-dione] | 7.96
C=CCn1cnn(Cc2sc3c(c2C)c(=O)n(CC)c(=O)n3CCC(F)(F)F)c1=O [Example 110, 6-[(4-Allyl-5-oxo-4,5-dihydro-H-1,2,4-triazol-1-yl)methyl]-3-ethyl-5-methyl-1-(3,3,3-trifluoropropyl)thieno[2,3-d]pyrimidine-2,4(1H,3H)-dione] | 7.10
Cc1c(CN2CCNC2=O)sc2c1c(=O)n(CC(C)C)c(=O)n2CC1COC1 [Example 199, 3-Isobutyl-5-methyl-1-(oxetan-3-ylmethyl)-6-[(2-oxoimidazolidin-1-yl)methyl]thieno[2,3-d]pyrimidine-2,4(1H,3H)-dione] | 8.09
Cc1c(CN2CCNC2=O)sc2c1c(=O)n(CC(F)F)c(=O)n2C [Example 223, 3-(2,2-Difluoroethyl)-1,5-dimethyl-6-[(2-oxoimidazolidin-1-yl)methyl]thieno[2,3-d]pyrimidine-2,4(1H,3H)-dione] | 7.85
CCn1c(=O)c2c(C)c(CN3CCNC3=NC#N)sc2n(CC2CCCO2)c1=O (racemic) [Example 259, [1-{[3-Ethyl-5-methyl-2,4-dioxo-1-(tetrahydrofuran-2-ylmethyl)-1,2,3,4-tetrahydrothieno[2,3-d]pyrimidin-6-yl]methyl}imidazolidin-2-ylidene]cyanamide] | 8.01
CCn1c(=O)c2c(C)c(CN3CCNC3=NC#N)sc2n(CC2CCO2)c1=O (single isomer, unassigned) [Example 258, [1-{[3-Ethyl-5-methyl-1-(oxetan-2-ylmethyl)-2,4-dioxo-1,2,3,4-tetrahydrothieno[2,3-d]pyrimidin-6-yl]methyl}imidazolidin-2-ylidene]cyanamide] | 7.48
Cc1c(Cn2cc[nH]c2=O)sc2c1c(=O)n(CC(F)(F)F)c(=O)n2CC1CCCO1 (single isomer, unassigned) [Example 343, 5-Methyl-6-[(2-oxo-2,3-dihydro-1H-imidazol-1-yl)methyl]-1-(tetrahydrofuran-2-ylmethyl)-3-(2,2,2-trifluoroethyl)thieno[2,3-d]pyrimidine-2,4(1H,3H)-dione] | 7.60
COC(=O)N=C1NCCN1Cc1sc2c(c1C)c(=O)n(CC(F)(F)F)c(=O)n2CC1CCO1 (racemic) [Example 383, Methyl [1-{[5-methyl-1-(oxetan-2-ylmethyl)-2,4-dioxo-3-(2,2,2-trifluoroethyl)-1,2,3,4-tetrahydrothieno[2,3-d]pyrimidin-6-yl]methyl}imidazolidin-2-ylidene]carbamate] | 7.82
COCCn1c(=O)n(CC(C)C)c(=O)c2c(C)c(CN3CCNC3=O)sc21 [Example 89, 3-Isobutyl-1-(2-methoxyethyl)-5-methyl-6-[(2-oxoimidazolidin-1-yl)methyl]thieno[2,3-d]pyrimidine-2,4(1H,3H)-dione] | 8.06
CCn1c(=O)c2c(C)c(CN3CCNC3=S)sc2n(CCC(C)(C)C)c1=O [Example 37, 1-(3,3-Dimethylbutyl)-3-ethyl-5-methyl-6-[(2-thioxoimidazolidin-1-yl)methyl]thieno[2,3-d]pyrimidine-2,4(1H,3H)-dione] | 6.66
COCCn1c(=O)n(CC(C)(C)C)c(=O)c2c(C)c(Cn3nc[nH]c3=O)sc21 [Example 428, 3-(2,2-Dimethylpropyl)-1-(2-methoxyethyl)-5-methyl-6-[(5-oxo-4,5-dihydro-1H-1,2,4-triazol-1-yl)methyl]thieno[2,3-d]pyrimidine-2,4(1H,3H)-dione] | 6.92
